This assay addresses T1, mAChR M4 (Homo sapiens, UniProt P08173).
T1 construct: expressed in transfected cells; host or cells: CHO-K1 cells, also stably transfected with the chimeric G-protein Gqi5
T1 sequence (P08173 1-479): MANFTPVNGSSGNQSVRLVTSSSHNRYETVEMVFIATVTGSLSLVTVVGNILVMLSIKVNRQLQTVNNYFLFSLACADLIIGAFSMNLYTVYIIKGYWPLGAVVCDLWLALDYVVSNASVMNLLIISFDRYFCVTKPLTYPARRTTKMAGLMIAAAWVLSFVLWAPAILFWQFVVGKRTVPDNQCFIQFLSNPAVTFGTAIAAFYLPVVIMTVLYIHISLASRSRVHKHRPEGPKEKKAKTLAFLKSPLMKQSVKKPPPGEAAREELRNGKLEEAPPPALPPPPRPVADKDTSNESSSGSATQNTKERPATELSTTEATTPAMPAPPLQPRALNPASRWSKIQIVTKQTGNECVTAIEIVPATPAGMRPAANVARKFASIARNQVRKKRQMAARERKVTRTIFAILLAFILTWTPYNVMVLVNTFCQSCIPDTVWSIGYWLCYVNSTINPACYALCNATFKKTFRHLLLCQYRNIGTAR
As to the kind of experiment: mAChR M4 cell-based functional assay (calcium mobilization, potentiation of EC20 acetylcholine response). To be noted: for Emax at 30 µM: % ACh maximum at 30 μM; for EC50: CHO-K1 cells expressing mAChR M4 (Gqi5), calcium flux, increase in EC20 acetylcholine response, >10,000 estimated where the curve has no plateau. An excerpt:
Chinese hamster ovary (CHO-K1) cells stably expressing rat (r)M1 were purchased from the American Type Culture Collection and cultured according to their indicated protocol. CHO cells stably expressing human (h)M2, hM3, and hM5 were described previously (Levey et al., 1991); hM1 and hM4 cDNAs were purchased from Missouri S&T cDNA Resource; rM4 cDNA was provided by T. I. Bonner (National Institutes of Health, Bethesda, Md.). rM2 and rM3 were cloned from a rat brain cDNA library and sequence verified. hM1, rM2, rM3, hM4, and rM4 cDNAs were used to stably transfect CHO-K1 cells purchased from the American Type Culture Collection using Lipofectamine 2000. To make stable rM2, hM2, hM4, and rM4 cell lines for use in calcium mobilization assays, these cells also were stably transfected with a chimeric G-protein (Gqi5) (provided by B. R. Conklin, University of California, San Francisco) using Lipofectamine 2000. rM1, hM1, rM3, hM3, rM5, and hM5 cells were grown in Ham's F-12 medium containing 10% heat-inactivated fetal bovine serum (FBS), 20 mM HEPES, and 50 µg/mL G418 sulfate. rM2-Gqi5, hM2-Gqi5, and hM4-Gqi5 cells were grown in the same medium also containing 500 µg/mL Hygromycin B. Stable rM4-Gqi5 cells were grown in DMEM containing 10% heat-inactivated FBS, 20 mM HEPES, 400 μg/mL G418 sulfate, and 500 μg/mL Hygromycin B.
For high throughput measurement of agonist-evoked increases in intracellular calcium, CHO-K1 cells stably expressing muscarinic receptors were plated in growth medium lacking G418 and hygromycin at 15,000 cells/20 μL/well in Greiner 384-well black-walled, tissue culture (TC)-treated, clear-bottom plates (VWR). Cells were incubated overnight at 37° C. and 5% CO2. The next day, cells were washed using an ELX 405 (BioTek) with four washes (80 μL) of assay buffer then aspirated to 20 μL. Next, 20 μL of 16 μM Fluo-4/acetoxymethyl ester (Invitrogen, Carlsbad, Calif.) prepared as a 2.3 mM stock in DMSO and mixed in a 1:1 ratio with 10% (w/v) Pluronic F-127 and diluted in assay buffer was added to the wells and the cell plates were incubated for 50 min at 37° C. and 5% CO2. Dye was removed by washing with the ELX 405 (four 80 μL washes of assay buffer) then aspirated to 20 μL. Compound master plates were formatted in an 11 point CRC format (1:3 dilutions) in 100% DMSO with a starting concentration of 10 mM using the BRAVO liquid handler (Agilent). Test compound CRCs were then transferred to daughter plates (240 nL) using the Echo acoustic plate reformatter (Labcyte, Sunnyvale, Calif.) and then diluted into assay buffer (40 μL) to a 2× stock using a Thermo Fisher Combi (Thermo Fisher Scientific, Waltham, Mass.).
Calcium flux was measured using the Functional Drug Screening System (FDSS) 6000 (Hamamatsu Corporation, Tokyo, Japan) as an increase in the fluorescent static ratio. Compounds were applied to cells (20 μL, 2×) using the automated system of the FDSS 6000 at 4 s into the 300 s protocol and the data were collected at 1 Hz. At 144 s into the 300 s protocol, 10 μL of an EC20 concentration of the muscarinic receptor agonist acetylcholine was added (5×), followed by the addition of 12 μL an EC80 concentration of acetylcholine at the 230 s time point (5×). Agonist activity was analyzed as a concentration-dependent increase in calcium mobilization upon compound addition. Positive allosteric modulator activity was analyzed as a concentration-dependent increase in the EC20 acetylcholine response. Antagonist activity was analyzed as a concentration-dependent decrease in the EC80 acetylcholine response. Concentration-response curves were generated using a four-parameter logistical equation in XLFit™ curve fitting software (IDBS, Bridgewater, N.J.) for Excel (Microsoft, Redmond, Wash.) or Prism (GraphPad Software, Inc., San Diego, Calif.). […]

Consider 22 compounds from US9637498B2, “Substituted thieno[2,3-C]pyridazine-6-carboxamide analogs as positive allosteric modulators of the muscarinic acetylcholine receptor M4” (Vanderbilt University, priority 2013, dated 2017).

Some results are limits rather than exact numbers.

In the case of `COc1ccc(CNC(=O)c2sc3nnc(C)c(C)c3c2Br)cc1` [B2], the Emax at 30 µM is 36% and the EC50 is 3.7 µM.

As for `Cc1nnc2sc(C(=O)NC3COC3)c(C)c2c1C` [B23], the maximum response (Emax) at 30 µM is 65% and the concentration giving a half-maximal response (EC50) was > 10 µM.

In the case of `Cc1nnc2sc(C(=O)N3CCC(c4ccccc4)C3)c(C3CC3)c2c1C` (centres unmarked) [B16], the EC50 is > 10 µM.

In the case of `COc1ccc(C2CC2NC(=O)c2sc3nnc(C)c(C)c3c2C2CC2)cc1` (centres unmarked) [B12], the concentration giving a half-maximal response (EC50) is > 10 µM.

With `Cc1nnc2sc(C(=O)N3CCC(c4ccccc4)C3)c(C)c2c1C` (centres unmarked) [B19], the half-maximal effective concentration (EC50) is > 10 µM.

For the compound `COc1ccc(CNC(=O)c2sc3nnc(C)c(C)c3c2C)cc1F` [B9], the Emax at 30 µM worked out at 59% and the EC50 was 2 µM.

`COc1ccc(CNC(=O)c2sc3nnc(C)c(C)c3c2C2CC2)cc1F` [B18]: the maximum response (Emax) at 30 µM worked out at 38% and the EC50 is 4.4 µM.

For the compound `Cc1nnc2sc(C(=O)NC3CN(c4ccc(C(F)(F)F)nc4)C3)c(C3CC3)c2c1C` [B22], the maximal effect (Emax) at 30 µM stood at 24% and the concentration giving a half-maximal response (EC50) was 3.1 µM.

In the case of `Cc1nnc2sc(C(=O)NC3CC3)cc2c1C` [B7], the Emax at 30 µM came to 72% and the concentration giving a half-maximal response (EC50) is 4.3 µM.

For the compound `Cc1nnc2sc(C(=O)N3CC(c4ccccc4)C3)c(C3CC3)c2c1C` [B8], the concentration for a half-maximal effect (EC50) is > 10 µM.

`Cc1nnc2sc(C(=O)NC3COC3)cc2c1C` [B6]: the Emax at 30 µM came out at 76% and the EC50 was 3.9 µM.

Regarding `Cc1nnc2sc(C(=O)NC3CC(F)(F)C3)c(C3CC3)c2c1C` [B17], the Emax at 30 µM amounted to 35% and the EC50 is > 10 µM.

Consider `Cc1nnc2sc(C(=O)NC3COC3)c(C3CC3)c2c1C` [B13], for which the Emax at 30 µM was 46% and the concentration giving a half-maximal response (EC50) was ~9 µM.

For the compound `COc1ccc(CNC(=O)c2cc3c(C)c(C)nnc3s2)cc1F` [B4], the Emax at 30 µM was 68% and the EC50 is 1.4 µM.

Turning to `Cc1nnc2sc(C(=O)NC3CC3)c(C3CC3)c2c1C` [B11], the maximum response (Emax) at 30 µM was determined as 35% and the EC50 is > 10 µM.

Regarding `Cc1nnc2sc(C(=O)NC3CCN(c4ccccc4)C3)cc2c1C` (centres unmarked) [B5], the concentration giving a half-maximal response (EC50) was > 10 µM.

`Cc1nnc2sc(C(=O)NC3CCC3)c(C3CC3)c2c1C` [B15]: the Emax at 30 µM was determined as 33% and the EC50 is 5.2 µM.

In the case of `Cc1nnc2sc(C(=O)NC3CN(c4cccnc4)C3)c(C)c2c1C` [B20], the Emax at 30 µM was determined as 69% and the EC50 was 0.91 µM.

Take `COc1ccc(C2CC2NC(=O)c2sc3nnc(C)c(C)c3c2C)cc1` (centres unmarked) [B21]: the maximal effect (Emax) at 30 µM was determined as 51% and the EC50 was 2.1 µM.

`Cc1nnc2sc(C(=O)NC3CN(c4ccc(C(F)(F)F)nc4)C3)cc2c1C` [B3]: the Emax at 30 µM was determined as 53% and the concentration for a half-maximal effect (EC50) was 1 µM.

Consider `Cc1nnc2sc(C(=O)NCc3ccc(S(=O)(=O)C(F)(F)F)cc3)c(Br)c2c1C` [B1], for which the half-maximal effective concentration (EC50) was > 10 µM.

As to `Cc1nnc2sc(C(=O)NC3CC3)c(C)c2c1C` [B14], the Emax at 30 µM was 68% and the EC50 is > 10 µM.

The term Emax denotes the maximal effect, on the per cent scale that the assay sets. As usually defined, the EC50 is the concentration giving half of the maximal effect.
